According to ChEMBL document CHEMBL1131389, “Unusual synthesis of new glycine antagonists via sequential aldol condensation-lactonization-elimination reaction” (Bioorg Med Chem Lett, 1998):

Biological target: Glutamate receptor ionotropic, NMDA 1 (Rattus norvegicus) (UniProt P35439)
Assay: In vitro affinity of compound for the glycinergic site associated with NMDA receptor was assessed by inhibition of the binding of [3H]glycine

Q: How did the pKi turn out when `O=C(O)c1[nH]c2cc(Cl)cc(Cl)c2c1/C=C1\CCCN(c2ccccc2)C1=O` was run?
A: Its pKi is 7.3.

Q: With `O=C(O)c1[nH]c2cc(Cl)cc(Cl)c2c1/C=C1\CCN(c2ccccc2)C1=O` as the molecule, how does the pKi read?
A: The pKi was 7.5.
